pIC50: −log10 of the molar value.
Experiments:
[1] = biological target: T1, HDAC3 (Homo sapiens, UniProt O15379); test: LCMS characterization of enzymatic deacetylation by HDAC3, incl. cleavage over time (kobs, T1/2); type: biochemical; conditions: for % HP-1 to DHP-1: 5 μM probe, 12 hours at 37° C.
T1 construct: purchased Cayman Chemicals
Experimental: The enzymatic cleavage of HP-1 and HP-2 was analyzed by performing LCMS assays with HeLa nuclear extract (AnaSpec), HeLa whole cell lysate (Santa Cruz Inc.), and the following purified HDAC isoforms: 1, 2, 3, 6 and 8 (HDAC1, 3 and 8 from Cayman Chemicals and HDAC2 and 6 provided by Dr. Stephen Haggarty). Solutions containing (i) vehicle with DMSO in HDAC buffer, (ii) 5 μM probe in HDAC buffer, (iii) 5 μM probe and HDAC enzyme/HeLa nuclear extract/HeLa whole cell lysate in HDAC buffer, or (iv) 5 μM probe and HDAC enzyme/HeLa nuclear extract/HeLa whole cell lysate pre-incubated with 10 μM SAHA (Provided by Dr. Stephen Haggarty) in HDAC buffer were incubated for 12 hours at 37° C. Following incubation, a 20 μL aliquot of supernatant from each sample was analyzed by LCMS. Deacetylation of HP-1 and 2 was confirmed by detection of the (M+H)^+.ion following positive electrospray ionization. For HP-1, the (M+H)^+ ion for the corresponding aldehyde (8, DHP-1) was detected, which formed following reaction of the initial imine deacetylation product with water. For HP-2, the […]. ion for the corresponding amine (6, DHP-2) was identified. The peak area for each detected compound was measured to determine the % deacetylation of each probe. All assay samples were analyzed in triplicate. […]
The rate of cleavage of HP-1 by purified HDAC3 was analyzed by performing a LCMS assay. […] Following incubation, a 20 μL aliquot of supernatant from each sample was analyzed by LCMS at t=0, 1, 2, 4, 8, and 12 hours. […] For HP-1, the (M+H)^+ ion for the corresponding aldehyde (8, DHP-1) was detected, which formed following reaction of the initial imine deacetylation product with water. The peak area for each detected compound was measured to determine the % deacetylation of each probe. The observed rate constant was determined using Graphpad by plotting Ln(DHP-1 peak area) versus time. […] All assay samples were analyzed in triplicate. […]
LCMS characterization of HDAC enzymatic action on HP-1 and HP-2. […] Following incubation, an aliquot of supernatant from each sample was analyzed by LCMS. […]

[2] = biological target: T2, HDAC1 (Homo sapiens, UniProt Q13547); test: HDAC1 IC50 (Trypsin-coupled assay and Caliper endpoint assay); type: biochemical; conditions: competitive inhibition with a peptide substrate
T2 construct: purchased Cayman Chemicals
Experimental: HP-1 and HP-2 IC50 values for HDAC1 were determined using the Trypsin-coupled assay as well as the Caliper endpoint assay. HP-1 and HP-2 IC50 values for HDAC2, HDAC3, HDAC6 and HDAC8 were determined with the Caliper endpoint assay.
In vitro HDAC 1 end point enzymatic assays were performed in optimized 96-well format as previously described^3,4 with the following modifications. Reactions were performed in volume of 120 uL with 30 ng of full-length, recombinant HDAC1 (BPS Biosciences). TCEP was excluded from the assay buffer. HDAC1 was pre-incubated with varying concentrations of HP-1 or HP-2, or DMSO vehicle for 30 minutes. Fluorophore-conjugated acetyl-lysine tripeptide substrate was added at a concentration equivalent to the substrate Km, 11 uM, and the deacetylation reaction was allowed to run for 45 minutes at RT. […] Fluorescence intensity of the aminomethylcoumarin liberated by deacetylase and trypsin enzymatic activity was monitored at 460 nm using a multilabel plate reader (EnVision, Perkin-Elmer) every 5 minutes until stable, about 25 minutes. […]
IC50 measurements. HP-1 and HP-2 IC50 values for HDAC1 were determined using the Trypsin-coupled assay as well as the Caliper endpoint assay. HP-1 and HP-2 IC50 values for HDAC2, HDAC3, HDAC6 and HDAC8 were determined with the Caliper endpoint assay (full experimental details in Example 1).

T1 sequence (O15379 whole entry): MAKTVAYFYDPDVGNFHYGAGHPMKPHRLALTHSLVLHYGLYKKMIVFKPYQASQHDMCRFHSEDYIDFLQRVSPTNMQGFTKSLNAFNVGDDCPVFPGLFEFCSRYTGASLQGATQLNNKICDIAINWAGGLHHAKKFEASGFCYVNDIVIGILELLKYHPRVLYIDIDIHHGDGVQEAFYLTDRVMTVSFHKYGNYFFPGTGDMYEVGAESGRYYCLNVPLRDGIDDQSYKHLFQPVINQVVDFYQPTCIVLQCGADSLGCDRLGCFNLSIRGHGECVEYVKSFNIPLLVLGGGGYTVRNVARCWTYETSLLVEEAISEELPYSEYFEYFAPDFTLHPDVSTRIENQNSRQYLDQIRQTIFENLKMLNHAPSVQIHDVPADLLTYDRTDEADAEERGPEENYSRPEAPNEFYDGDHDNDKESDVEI
T1 sequence (Q9Y618 395-489 partner limits assumed): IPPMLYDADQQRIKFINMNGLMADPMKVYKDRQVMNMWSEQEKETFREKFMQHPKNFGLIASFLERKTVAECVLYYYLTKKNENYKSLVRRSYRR
T2 sequence (Q13547 whole entry): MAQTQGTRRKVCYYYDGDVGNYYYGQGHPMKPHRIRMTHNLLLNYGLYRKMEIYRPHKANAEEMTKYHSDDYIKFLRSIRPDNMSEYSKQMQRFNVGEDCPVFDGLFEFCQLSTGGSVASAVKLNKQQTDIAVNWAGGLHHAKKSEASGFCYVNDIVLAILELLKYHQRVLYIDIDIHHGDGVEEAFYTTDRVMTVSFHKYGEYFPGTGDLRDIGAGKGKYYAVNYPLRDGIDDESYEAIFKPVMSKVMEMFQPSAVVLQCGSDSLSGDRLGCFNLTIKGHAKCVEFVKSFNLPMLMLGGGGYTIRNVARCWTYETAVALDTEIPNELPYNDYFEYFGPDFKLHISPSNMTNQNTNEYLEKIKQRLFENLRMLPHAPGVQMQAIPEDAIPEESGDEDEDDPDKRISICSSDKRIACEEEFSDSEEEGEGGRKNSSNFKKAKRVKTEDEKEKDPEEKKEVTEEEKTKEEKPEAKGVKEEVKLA

SMILES: CC(=O)NC=CCCCCNC(=O)CCCCCNc1ccc([N+](=O)[O-])c2nonc12 [HP-1]
- kobs with HDAC3 (conversion of HP-1 to DHP-1) ([1]; 5 μM HP-1, HDAC3, 37° C., t=0-12 hours, Ln(DHP-1 peak area) versus time): 3.2e-05 ± 6e-06 s⁻¹
- % HP-1 to DHP-1 ([1]; HDAC3, +SAHA (10 μM)): 0%
- % HP-1 to DHP-1 ([1]; HDAC3, −SAHA, maximum detected conversion): 93%
- pIC50 ([2]; HDAC1, table does not say whether Trypsin-coupled or Caliper assay): 4.45
- inhibition of HDAC1 (in words) [2]: weakly inhibit

From patent publication US20160138077A1, “MONITORING AND ASSESSING DEACETYLASE ENZYME ACTIVITY” (THE GENERAL HOSPITAL CORPORATION, priority 2013, published 2016)
